The results in this text go back to patent publication US8198317B2, “Methylenedioxy phenolic compounds and their use to treat disease” (The Ohio State University Research Foundation, priority 2008, dated 2012).

Each structure is given as a SMILES string.

The subject of data set [1] is Human Umbilical Vein Endothelial Cells (HUVECs). The experiment in a line: MTT cell toxicity assay. It is filed as cell-based. The note with it: HUVEC; for cells displaying toxicity: 24 hours. The method, then: Cell Culture: All experiments were performed with cultured Human Umbilical Vein Endothelial Cells (HUVECs—Gibco, Invitrogen) and grown to confluence at 37° C. in a 5% CO2 humidified incubator, on tissue culture flasks previously coated with 1% gelatin in supplemented culture medium (M199 with 10% heat inactivated fetal calf serum, 100 U/ml penicillin, 100 μg/ml streptomycin, 2 mM glutamine, 10 mM HEPES, pH 7.4, heparin 12 I.U./ml, 1% retinal derived growth factor, Sigma). Following trypsin treatment, the cells were detached from the flasks and final mono-layers were prepared by seeding HUVECs on gelatin-precoated culture plates and then incubated for 24-48 h to ensure confluence. Cells up to the fourth passage were used for all experiments. Recombinant human TNF-α was purchased from R&D Systems (Minneapolis, Minn.).
Cell Toxicity Assays: Cellular toxicity was assessed by MTT [3-(4,5-dimethylthiazol-2-yl)-2,5-diphenyltetrazolium bromide] assay, a commercially available assay for assessment of cellular viability. INV-75 was added to HUVECs for 24 hours, and toxicity assays were performed at the end of this period. The MTT assay relies on the cellular reduction of positively charged tetrazolium salts to their intensely colored formazan product by mitochondrial dehydrogenases. Formazan production is decreased in the presence of impaired mitochondrial redox function and enhanced free radical production and may, therefore, be used as an index of cell viability responses to experimental interventions.
In short, after removing microtiter plates from the incubator, fresh medium containing a fixed volume of reconstituted MTT [3-(4,5-dimethylthiazol-2-yl)-2,5-diphenyltetrazlium bromide; final concentration: 0.5 mg/ml] was added to the wells; the plates were kept at 37° C. in a 5% CO2 environment for 2 h, and then the MTT solubilization solution provided by the manufacturer was added. The formazan product formed by the conversion of positively charged tetrazolium salts to the reduced state has low aqueous solubility and is present as purple crystals. Dissolving the formazan with a solubilization buffer (provided in kit) permits the convenient quantification of its formation. Optical density at OD 570 nm is then measured for each well on an absorbance plate reader. The within- and between-assay variability was 3 and 5%, respectively. Various concentrations of INV-75 was tested in cell based assays using the MTT assay, as described above. The concentrations tested ranged from 1 mM to 10 nM and the cells were exposed for over 24 hours in duration (FIG. 2).
On the technique in general: Tetrazolium dyes change colour on reduction, which living cells bring about.

The next data set concerns C57Bl/6 mice. Description: SREBP-2, LDLR and LDL in vivo in mice. The arrangement: species or system mouse. The note with it: 20 mg/kg/day intraperitoneally, two weeks. The method, then:
To study the effect of INV-75 on SREBP activity in vivo experiment was performed as follows: C57bl/6 mice (6/group) were intraperitoneally injected with INV-75 (20 mg/kg/day, for two weeks). The binding activity of SREBP2 in nuclear proteins of liver homogenates was measured by electrophoretic migration shift assay (EMSA). Simultaneously multiple genes involved in cholesterol synthesis and regulation, apolipoprotein gene expression and expression of PCSK9 (Proprotein convertase subtilisin/kexin type 9) were also studied in the liver. PCSK9 is known to regulate LDL receptor expression by binding to the epidermal growth factor-like repeat A (EGF-A) domain of the low-density lipoprotein receptor (LDLR), inducing LDLR degradation.

In the next data set the test system is PCSK9. Description: PCSK9 expression in HepG2 cells. It is filed as cell-based, human. The source says:
Next we investigated the effect of INV-75 in regulating LDL receptor expression in the same cells using a similar protocol to assess dose and temporal dependence. FIGS. 5E and 5F depict the time course of LDL receptor expression and dose dependence in response to INV-75. […] INV-75 had no effects on SREBP-1 regulation (data not shown). Simultaneously multiple genes involved in cholesterol synthesis and regulation, apolipoprotein gene expression and expression of PCSK9 (Proprotein convertase subtilisin/kexin type 9) was tested. The latter gene is known to regulate LDL receptor expression by binding to the epidermal growth factor-like repeat A (EGF-A) domain of the low-density lipoprotein receptor (LDLR), inducing LDLR degradation. Inhibition of PSCK9 function is currently being explored as a means of lowering cholesterol levels.

Data set [2] concerns Watanabe Heritable Hyperlipidemic Rabbits (WHHL). Description: 8-Isoprostane enzyme linked immunoassay in WHHL rabbits. It is filed as in vivo, rabbit. The note with it: vs control groups. As to the method:
[…] […] Both samples underwent affinity purification (Cayman Chemical, Ann Arbor, Mich.) and then measurement of 8-isoprostane with the Stat-8-Isoprostane ELISA kit (Cayman Chemical, Ann Arbor, Mich.). […] The protein levels in liver lysates were determined by BCA Protein Assay (Pierce, Rockford, Ill.).

Data set [3] has as its system New Zealand White rabbits. Description: Plasma lipid profile in NZW rabbits. It is filed as in vivo, rabbit. The note with it: end of treatment. As to the method: (§1) Animal Model: 15 male New Zealand White rabbits (Charles River, Mass.) were fed with high fat diet (HFD) (Harlan Teklad rabbit diet with 0.5% cholesterol, TD 87251). After 4 weeks of high fat diet, rabbits were randomized into three different treatment groups, normal control (n=5), lipoic acid (100 mg/kg/day) (n=5), INV 70-65 (100 mg/kg/day) (n=5). These drugs were administered to the animals via their chow by mixing the drugs with the high fat diet. A fixed amount of chow and drugs admixed in the chow were fed to all animals every day after carefully calculating food intake in each rabbit. Drugs were dissolved in 100% ethanol and sprayed onto the diet and kept under vacuum to let ethanol evaporate overnight. Two (2) weeks after drug or control admixed HFD, all rabbits underwent aortic balloon denudation surgeries followed by 12 weeks of continued administration of drug or controls admixed with HFD. FIG. 29 provides an outline of the experimental design.
A lipid profile (Cholesterol, Triglycerides, direct HDL, LDL and VLDL) was performed after a total of 12 weeks of treatment with the drugs. One (1) ml of blood from the ear lobe vein was placed into tubes containing K EDTA at the beginning of the high cholesterol diet and again at the time of sacrifice. All values were expressed as mean±SD. The bar graph of each group both at the baseline and the end point measurement is presented. The statistical analysis was done with one way ANOVA.

For data set [4], the system named is New Zealand White rabbits. Description: Oil Red O staining of abdominal aorta of NZW rabbits. It is filed as in vivo, rabbit. As to the method:
as §1
Hypercholesterolemia and oxidative stress play an important role in the development of atherosclerosis. The rabbits were sacrificed and abdominal aortas were fixed in 4% PFA (paraformaldehyde). The lipid deposition in the aortic wall was then visualized by oil red staining.

In turn, `CC(=O)Oc1cc2c(cc1[N+](=O)[O-])OCO2` [INV-75, 3,4-methylenedioxy-6-nitrophenyl acetate] had a cells displaying toxicity in data set [1] (10 nM) of 2%. Besides, in data set [1] (100 nM), the cells displaying toxicity was determined as 4%. Moreover, the cells displaying toxicity in data set [1] (1 μM) was determined as 8%. The cells displaying toxicity in data set [1] (10 μM) is 7%. In data set [1] (1 mM), this molecule had a cells displaying toxicity of 74%. Besides, in the data set with C57Bl/6 mice, the LDL result was “significantly lowered”; the “LDL receptor expression in liver (real-time RT-PCR, western blot)” value was “increase”; the “SREBP2 activation in liver (EMSA)” value is “dramatically activated”; the other lipoproteins entry is on record as “not other lipoproteins”. In the data set with PCSK9, the PCSK9 expression result is recorded as “no effects”. Also, in data set [2], the “8-Isoprostane production in aortic homogenates” value is on record as “significantly lower” and the “8-Isoprostane production in plasma” value is reported as “significantly lower”. Moreover, in data set [3], the “LDL level compared to normal control” value is recorded as “moderate decreases” and the “TC level compared to normal control” value is “moderate decreases”.
For the molecule `O=C(CCCCC1CCSS1)Oc1ccc2c(c1)OCO2` (stereo not shown) [INV-7065, 3,4-Methylenedioxy phenyl lipoate], in data set [4] (NZW), the “reduction in lipid deposition in the aortic wall compared to controls” value is reported as “about 80%” and the “reduction in lipid deposition in the aortic wall compared to lipoic acid” value is given as “about 40%”. The “lipid content in the plaque area (Oil Red O) compared to the control group” value in data set [4] (NZW abdominal aorta) is recorded as “reduction”. For the same molecule, the “cell toxicity results compared with those of INV-75” value in data set [1] (dose range of 10 nM to 100 μM) was “identical”. For the same molecule, in data set [3], the HDL levels result is given as “insignificant change”, the “LDL level compared to normal control” value was “lower”, the “VLDL levels compared to controls” value is on record as “slight decrease” and the “triglyceride (TG) levels compared to controls” value is “significantly decreased”.
